This is an account of results in PMC5955835 (ACS chemical neuroscience, 2018).

“Also recorded” adds a separate entry of the source. Structures can show the parent of a compound that is named as a salt.

The subject of experiment [1] is VC4 and 5 neurons of C. elegans SC_APP model. In words: HCS microfluidic neurodegeneration assay in C. elegans SC_APP model. Conditions: for effect on neurodegeneration of VC4 and 5 neurons in SC_APP model: D3 adult animals, liquid culture, doses 0.02, 0.2, 2 and 20 μM, vs vehicle-treated SC_APP (200 μM FUdR, 0.5% DMSO); for concentration of highest efficacy in protecting against neurodegeneration: SC_APP model, D3 animals, four doses 0.02-20 μM. The format is in vivo.

Experiment [2] relates to transgenic APP mouse model. Particulars: listed as SAS-0132; cited from earlier work.
The test system of experiment [3] is VC4 and 5 neurons of SC_APP vem-1/PGRMC1 null C. elegans. Particulars: earlier work, SC_APP model; cited from earlier work.

In the case of `CN1CCN(c2ccc3c(c2)[C@H]2C[C@@H]3CCN2C(=O)OCc2ccccc2)CC1` [Compound 1], in experiment [1], the “effect on neurodegeneration of VC4 and 5 neurons in SC_APP model” value (from here on “effect on neurodegeneration”) was “reduce neurodegeneration relative to the vehicle treated SC_APP group”. Moreover, the “cognitive performance in transgenic AD mice” value in experiment [2] was “improvement in cognitive performance; also recorded: efficacious”. In experiment [3], the “PGRMC1 dependence of reduction of neurodegeneration” value is recorded as “reduced neurodegeneration through a pathway dependent upon PGRMC1”. With `COc1ccc(S(=O)(=O)Nc2cc(Cl)cc(Cl)c2OC)cc1N1CCNCC1` [SB399885, SB 399885 hydrochloride], in experiment [1], the “effect on neurodegeneration” value was “protected the cholinergic neurons of the SC_APP model”; the “concentration of highest efficacy in protecting against neurodegeneration” value (“concentration of highest efficacy” below) was found to be 20 µM.

`C=C(c1ccc(C(=O)O)cc1)c1cc2c(cc1C)C(C)(C)CCC2(C)C` [bexarotene]: in experiment [1], the “effect on neurodegeneration” value is “protected the cholinergic neurons of the SC_APP model”; the “concentration of highest efficacy” value is 20 µM.

With `OC(CNc1ccccc1)Cn1c2ccc(Br)cc2c2cc(Br)ccc21` (stereo not drawn) [Compound P7C3, P7C3], the “concentration of highest efficacy” value in experiment [1] was 0.2 µM. For `Fc1ccc(-n2cc(CCCCN3CCC4(CC3)OCc3ccccc34)c3ccccc32)cc1` [Siramesine], the “effect on neurodegeneration” value in experiment [1] is recorded as “increase neurodegeneration after a dosing threshold is exceeded despite an initial decrease at lower dosages”.
